Where two headings read alike, the source gives them in different places. Bridge positions count the residues as written; N and C are the ends. Ends that are not written are not given here.
Columns and labels:
[1] = not given; remark: listed apart in the source
[2] = not given; remark: listed apart in the source
[3] = not given; remark: listed apart in the source
[4] = not given; remark: listed apart in the source
[5] = not given; remark: listed apart in the source
[6] = not given; remark: listed apart in the source
[7] = not given; remark: listed apart in the source
C. albicans ATCC 10231 = settings: Table 2; strain resistant to azoles and anidulafungin; Sabouraud broth, 30 °C, 24 h, 100% inhibition
Description: (§1) Using the two-fold serial dilution method, antifungal activities of the obtained analogues were tested against different C. albicans strains: susceptible collection strain ATCC 18804; resistant to azoles and anidulafungin collection strain ATCC 10231 and clinical isolates 9.1 and 8.2 [7].
(§2) The antifungal assay was performed by the microdilution method using 96-well microplates and Sabouraud broth as described earlier. […] After that, the plates were incubated at 30 °C for 24 h. A control without antifungals was also tested. Fungal growth was evaluated by measuring absorbance at 630 nm. […] All the experiments were performed twice in triplicate. Microscopic analysis of fungal growth was performed using inverted microscopy (Olympus, Tokyo, Japan). A 0.1% BSA solution was used for the blocking of each microplates well to prevent the adsorption of antifungal agents.

C. albicans ATCC 18804 [8] = settings: Sabouraud broth
Description: as §1, §2

[9] = system: C. albicans clinical isolate 8.2; settings: Table 2; resistant clinical isolate 8.2; Sabouraud broth, 30 °C, 24 h, 100% inhibition
Description: as §1, §2

[10] = system: C. albicans clinical isolate 9.1; settings: Table 2; resistant clinical isolate 9.1; Sabouraud broth, 30 °C, 24 h, 100% inhibition
Description: as §1, §2

C. albicans ATCC 18804 [11] = test: Checkerboard antifungal assay; assay type: cell-based; settings: Sabouraud broth, 24 h, 30 °C, synergism at FICI ≤ 0.5, additive action at 0.5 < FIC ≤ 1
Description: All three selected analogues acted synergistically with caspofungin, and the FICI value for NaD1-2 was lower than that of the tobacco defensin.
Two-fold serial dilutions of each test agent were prepared in 96-well microplates in water or 1% DMSO in the case of caspofungin and mixed with equal volumes of suspensions of C. albicans cells (4 × 10^4 cells/mL) in Sabouraud broth, followed by 24 h incubation at 30 °C. Controls containing DMSO at a final concentration of 0.5% (cells only and single agent dilutions) were included in all caspofungin combination assays. […] To assess the combined effect of antifungal substances, the fractional inhibitory concentration index (FICI) was calculated as FICI = ([A])/([MICA]) + ([B])/([MICB]), where [MICA] and [MICB] are the MICs of the substances A and B, respectively, and [A] and [B] are the concentrations of the substances A and B in iso-effective combinations, respectively.

[12] = system: human red blood cells (hRBCs); settings: 100 µM
Description: All procedures were approved by the Ethics Committee of the Institute of Experimental Medicine (protocol 1/20 of 2/27/2020) and comply with the ethical principles of the Declaration of Helsinki. […] Samples were centrifuged to sediment intact red blood cells. Supernatants containing released hemoglobin were transferred to 96-well microplates, and absorbance was measured at 405 nm. Untreated hRBCs in PBS (A0) and hRBC treated with 0.1% Triton X-100 (Sigma-Aldrich) (Acontrol) were used as negative and positive controls, respectively. The percentage of hemolysis was calculated as [(Asample − A0)/(Acontrol − A0)] × 100%. The experiment was carried out twice in duplicate.

Caco-2 cell monolayer = test: Cytotoxicity assay, resazurin method; assay type: cell-based, human
Description: (§3) Cytotoxic activity of the peptides was investigated against human peripheral blood mononuclear cells (PBMCs) and the Caco-2 epithelial monolayer as an in vitro model of the intestinal barrier using a RPMI-1640 medium and resazurin-test.
(§4) In brief, Caco-2 cells in a monolayer or 2 × 10^6 PBMCs per well were incubated with serial dilutions of the peptides for 24 h in RPMI-1640. Resazurin (Sigma, St. Louis, MO, USA) was then added at a final concentration of 70 µM and the plates were incubated for 20 h. Untreated cells (F0) and cells treated by 0.1% Triton X-100 (Sigma-Aldrich) (Fcontrol) were used as negative and positive controls, respectively. Cell viability was assessed by resorufin fluorescence using a 535/595 nm filter and a PlateReader AF2200 as ((Fsample − F0)/(Fcontrol − F0)) × 100%. […] The experiment was carried out twice in duplicate.

PBMCs = test: Cytotoxicity assay, resazurin method; assay type: cell-based, human
Description: as §3, §4

[13] = not given; remark: listed apart in the source
[14] = not given; remark: listed apart in the source
[15] = not given; remark: listed apart in the source
[16] = not given; remark: listed apart in the source
trypsin = target: T1, trypsin (Bos taurus, UniProt P00760); settings: 24 h, 37 °C, 50 mM ammonium bicarbonate buffer pH 8.0, 2.5 ng trypsin per 1 μg peptide, SDS-PAGE
T1 construct: gene PRSS1
T1 sequence (P00760 24-246): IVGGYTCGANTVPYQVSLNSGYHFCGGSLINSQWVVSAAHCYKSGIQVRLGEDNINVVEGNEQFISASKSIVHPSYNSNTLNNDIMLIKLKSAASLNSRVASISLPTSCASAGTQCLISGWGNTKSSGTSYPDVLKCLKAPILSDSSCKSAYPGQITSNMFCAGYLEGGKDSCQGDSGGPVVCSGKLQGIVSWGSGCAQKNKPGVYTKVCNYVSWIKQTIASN
Description: (§5) For that purpose, peptides were incubated for 24 h at 50 mM ammonium bicarbonate buffer, pH 8.0, with or without protease.
(§6) The results of proteolysis were monitored by SDS-PAGE (17% T, 3%C). α-Casein, known for its susceptibility to proteolytic digestion, was used in these experiments for comparison.

α-chymotrypsin = settings: 24 h, 37 °C, 50 mM ammonium bicarbonate buffer pH 8.0, 10 ng α-chymotrypsin per 1 μg peptide, SDS-PAGE
Description: as §5, §6

[17] = Caco-2 monolayer, RPMI-1640, resazurin-test

RECKTESNTFPGICITKPPCRKACISEKFTDGHCSKILRRCLCTKPC (disulfide 3-47, 14-34, 20-41, 24-43) [NaD1]
Random, DPC micelles: 34.2%
Random, SDS micelles [1]: 31%
β-Turn, DPC micelles [2]: 21.1%
β-Turn, SDS micelles [3]: 22.2%
α-Helix, DPC micelles [4]: 9.3%
α-Helix, SDS micelles [5]: 15.8%
β-Sheet, DPC micelles [6]: 35.4%
β-Sheet, SDS micelles [7]: 31%
MIC (C. albicans ATCC 10231): 6.25 µM
IC50 (C. albicans ATCC 18804 [8]; 50 mM NaCl, 50% inhibition): 12.5 to 25 µM
MIC (C. albicans ATCC 18804 [8]; 50 mM NaCl, 100% inhibition): 50 µM
IC50 (C. albicans ATCC 18804 [8]; 150 mM NaCl, 50% inhibition): > 50 µM
MIC (C. albicans ATCC 18804 [8]; Table 2, 30 °C, 24 h, 100% inhibition of fungal growth, absorbance 630 nm, two-fold dilutions, twice in triplicate): 6.25 µM
IC50 (C. albicans ATCC 18804 [8]; Table 3, No Salts, 50% inhibition of fungal growth): 1.56 to 3.13 µM
MIC (C. albicans ATCC 18804 [8]; Table 3, No Salts, 100% inhibition of fungal growth): 6.25 µM
IC50 (C. albicans ATCC 18804 [8]; […] CaCl2, 50% inhibition): > 50 µM
MIC (C. albicans ATCC 18804 [8]; […] CaCl2, 100% inhibition): >50 µM
IC50 (C. albicans ATCC 18804 [8]; […] MgCl2, 50% inhibition): 3.13 to 6.25 µM
MIC (C. albicans ATCC 18804 [8]; […] MgCl2, 100% inhibition): 12.5 µM
MIC [9]: 6.25 µM
MIC [10]: 6.25 µM
FICI LL-37 (C. albicans ATCC 18804 [11]; combination of the peptide with LL-37): 0.38
FICI Casp (C. albicans ATCC 18804 [11]; combination of the peptide with caspofungin): 0.31
Hemolysis at 100 µM [12]: 14%
concentration at which cell viability was 0% (100% cell death) (Caco-2 cell monolayer; [17]): 37.5 µM
concentration at which cell viability was 50% (Caco-2 cell monolayer; [17]): 10.5 µM
СС50 Caco-2 (Caco-2 cell monolayer; Table S2, monolayer, 24 h in RPMI-1640, resazurin, twice in duplicate): 10.5 µM
cell viability (PBMCs; PBMCs, peptide 100 μM, RPMI-1640, resazurin-test): approximately 72%
СС50 PBMCs (PBMCs; Table S2, 24 h in RPMI-1640, resazurin, twice in duplicate): > 100 µM
Random, aqueous solution [13]: 35.8%
β-Turn, aqueous solution [14]: 21.3%
α-Helix, aqueous solution [15]: 7.5%
β-Sheet, aqueous solution [16]: 35.4%
stability to trypsin digestion (trypsin): high stability
stability to chymotrypsin digestion (α-chymotrypsin): high stability
